These results are taken from US6534524B1, “Indazole compounds and pharmaceutical compositions for inhibiting protein kinases, and methods for their use” (Agouron Pharmaceuticals, Inc., priority 1999, dated 2003).

Where two headings read alike, the source gives them in different places.

A short description of data set [1]: Determination of inhibitor concentration in mouse plasma after intraperitoneal and oral dosing. It is filed as in vivo. The settings on record: for concentration at 7 h: vehicle PEG400:H2O pH 2.3 30:70, read-out: Cmin (7 hr conc.). The gist of the method: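 Plasma levels quantified by HPLC or LC-MS using a standard curve prepared in mouse plasma, following ethyl acetate extraction with internal standard and sodium hydroxide. Sampling at 0.5, 1, 4 h (ocular bleed) and 7 h (cardiac puncture) after oral or intraperitoneal dosing.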

Data set [2] can be described thus: Human liver microsome (HLM) assay. It is filed as in vitro ADME. The conditions noted are these: human liver microsomes, 5 μM test compound. The protocol: Human Liver Microsome (HLM) Assay Compound metabolism in human liver microsomes was measured by LC-MS analytical assay procedures as follows. […] (3 tubes per test compound-triplicate). […] The samples were then transferred to separate polypropylene microcentrifuge tubes and centrifuged at 14000 g for 10 min. (Fisher Micro […] M0017580). For each replicate (#1-3) at each timepoint (0 and 2 h), an aliquot sample of each test compound was combined into a single HPLC vial insert (6 total samples) for LC-MS analysis, which is described below.
Background: Liver microsomes are a subcellular fraction often used to study metabolism.

[3] abbreviates: IP, 25 mg/kg, vehicle PEG400:H2O pH 2.3 30:70.
Setting [4] is: PO, 50 mg/kg, vehicle PEG400:H2O pH 2.3 30:70.
Setting [5] is: PO, 25 mg/kg, vehicle PEG400:H2O pH 2.3 30:70.

By Cmax is commonly meant the peak of the concentration-time curve. Consider `CCCNC(=O)c1ccccc1Sc1ccc2c(/C=C/c3ccccn3)n[nH]c2c1` [Example 35(a), 6-[2-(n-Propylcarbamoyl)phenylsulfanyl]-3-E-[2-(pyridin-2-yl)ethenyl]-1H-indazole], for which, in data set [1] (setting [3]), the AUClast worked out at 2032 ng·h/mL, the peak concentration (Cmax) worked out at 2138 ng/mL and the “plasma half-life (T1/2)” value was found to be 1.4 h. In data set [1] (setting [4]), the AUClast was 2445 ng·h/mL, the highest concentration (Cmax) was 1780 ng/mL and the “plasma half-life (T1/2)” value was 0.9 h. For the same molecule, the concentration at 7 h in data set [1] (female, IP, 25 mg/kg) turned out to be 24 ng/mL. In addition, the concentration at 7 h in data set [1] (female, PO, 50 mg/kg) amounted to 10 ng/mL. Also, the “% remain (HLM, 2 h)” value in data set [2] is reported as 33%.

As to `COc1cccc(CNC(=O)c2ccccc2Sc2ccc3c(/C=C/c4ccccn4)n[nH]c3c2)c1` [Example 35(aa)], in data set [1] (setting [5]), the AUClast came to 4036 ng·h/mL and the “plasma half-life (T1/2)” value turned out to be 2.1 h. The concentration at 7 h in data set [1] (female, PO, 25 mg/kg) amounted to 106 ng/mL. For the same molecule, in data set [2], the “% remain (HLM, 2 h)” value is given as 15%.

Regarding `O=C(NC1CCC1)c1ccccc1Sc1ccc2c(/C=C/c3ccccn3)n[nH]c2c1` [Example 35(c), 6-[2-(Cyclobutylcarbamoyl)phenylsulfanyl]-3-E-[2-(pyridin-2-yl)ethenyl]-1H-indazole], in data set [1] (setting [3]), the AUClast is 9408 ng·h/mL, the Cmax amounted to 1976 ng/mL and the “plasma half-life (T1/2)” value was determined as 3.2 h. Also, in data set [1] (setting [4]), the AUClast is 4744 ng·h/mL and the “plasma half-life (T1/2)” value was 4.9 h. Also, in data set [1] (female, IP, 25 mg/kg), the concentration at 7 h was 465 ng/mL. For the same molecule, the concentration at 7 h in data set [1] (female, PO, 50 mg/kg) came to 321 ng/mL. Also, the “% remain (HLM, 2 h)” value in data set [2] is 17%.

Turning to `C#CCNC(=O)c1ccccc1Sc1ccc2c(/C=C/c3ccccn3)n[nH]c2c1` [Example 35(cc), 6-[2-(2-Propynylcarbamoyl)phenylsulfanyl]-3-E-[2-(pyridin-2-yl)ethenyl]-1H-indazole], the AUClast turned out to be 2223 ng·h/mL in data set [1] (setting [3]) and 1718 ng·h/mL in data set [1] (setting [4]). In addition, the “plasma half-life (T1/2)” value in data set [1] (setting [3]) was 1.4 h; in data set [1] (setting [4]), 0.9 h. The concentration at 7 h in data set [1] (female, IP, 25 mg/kg) is 6 ng/mL; in data set [1] (female, PO, 50 mg/kg) it was 5 ng/mL. Further, in data set [2], the “% remain (HLM, 2 h)” value came out at 31%.

On to `Cn1cccc1C(=O)NNC(=O)c1ccccc1Sc1ccc2c(/C=C/c3ccccn3)n[nH]c2c1` [Example 35(e), 6-[2-((1-Methylpyrrol-2-ylhydrazido)carbonyl)phenylsulfanyl]-3-E-[2-(pyridin-2-yl)ethenyl]-1H-indazole], for which the AUClast in data set [1] (setting [3]) worked out at 2409 ng·h/mL; in data set [1] (setting [4]) it was 1503 ng·h/mL. The figures for the “plasma half-life (T1/2)” value in data set [1] (setting [3]) and in data set [1] (setting [4]) were 1.8 h and 0.9 h, respectively. The concentration at 7 h is 65 ng/mL in data set [1] (female, IP, 25 mg/kg) and 6 ng/mL in data set [1] (female, PO, 50 mg/kg). The “% remain (HLM, 2 h)” value in data set [2] is reported as 34%.

For `C=C(C)CNC(=O)c1ccccc1Sc1ccc2c(/C=C/c3ccccn3)n[nH]c2c1` [Example 35(ee), 6-[2-(2-Methyl-2-propenylcarbamoyl)phenylsulfanyl]-3-E-[2-(pyridin-2-yl)ethenyl]-1H-indazole], the AUClast in data set [1] (setting [3]) was 546 ng·h/mL; in data set [1] (setting [5]), 157 ng·h/mL. Moreover, the “plasma half-life (T1/2)” value in data set [1] (setting [3]) amounted to 1.5 h; in data set [1] (setting [5]), 14.6 h. Further, the concentration at 7 h is 2 ng/mL in data set [1] (female, IP, 25 mg/kg) and 9 ng/mL in data set [1] (female, PO, 25 mg/kg). Further, the “% remain (HLM, 2 h)” value in data set [2] turned out to be 13%.

Consider `COc1ccc(CNC(=O)c2ccccc2Sc2ccc3c(/C=C/c4ccccn4)n[nH]c3c2)cc1` [Example 35(g)], for which, in data set [1] (setting [5]), the AUClast turned out to be 231 ng·h/mL and the “plasma half-life (T1/2)” value was 16.1 h. For the same molecule, the concentration at 7 h in data set [1] (female, PO, 25 mg/kg) is 28 ng/mL. Further, the “% remain (HLM, 2 h)” value in data set [2] was 53%.

On to `Cc1ccc(CNC(=O)c2ccccc2Sc2ccc3c(/C=C/c4ccccn4)n[nH]c3c2)o1` [Example 35(h), 6-[2-((5-Methylfur-2-yl)methylcarbamoyl)phenylsulfanyl]-3-E-[2-(pyridin-2-yl)ethenyl]-1H-indazole], for which, in data set [1] (setting [3]), the AUClast amounted to 59 ng·h/mL and the “plasma half-life (T1/2)” value was found to be 1.5 h. In data set [1] (setting [4]), the AUClast is 26 ng·h/mL and the Cmax was found to be 7 ng/mL. For the same molecule, the concentration at 7 h in data set [1] (female, IP, 25 mg/kg) is 1 ng/mL. Also, the concentration at 7 h in data set [1] (female, PO, 50 mg/kg) was determined as 2 ng/mL. Besides, in data set [2], the “% remain (HLM, 2 h)” value is 9%.

On to `CC(C)ONC(=O)c1ccccc1Sc1ccc2c(/C=C/c3ccccn3)n[nH]c2c1` [Example 35(k), 6-[2-(Isopropoxycarbamoyl)phenylsulfanyl]-3-E-[2-(pyridin-2-yl)ethenyl]-1H-indazole], for which the AUClast in data set [1] (setting [3]) was 2640 ng·h/mL; in data set [1] (setting [4]), 5529 ng·h/mL. The “plasma half-life (T1/2)” value in data set [1] (setting [3]) and in data set [1] (setting [4]) was 1.4 h in each case. Also, the concentration at 7 h in data set [1] (female, IP, 25 mg/kg) was 35 ng/mL; in data set [1] (female, PO, 50 mg/kg), 33 ng/mL. In data set [2], the “% remain (HLM, 2 h)” value is listed as 14%.

As a reminder, the AUC(0-t) is exposure summed from dosing to a finite time, without extrapolation to infinity. A higher AUC(0-t) goes with more exposure. For `O=C(NOCC1CC1)c1ccccc1Sc1ccc2c(/C=C/c3ccccn3)n[nH]c2c1` [Example 35(s), 6-[2-((Cyclopropyl)methoxycarbamoyl)phenylsulfanyl]-3-E-[2-(pyridin-2-yl)ethenyl]-1H-indazole], the “plasma half-life (T1/2)” value in data set [1] (setting [5]) is 2.2 h. Besides, the area under the curve AUC(0-t) in data set [1] (female, PO, 25 mg/kg, vehicle PEG400:H2O pH 2.3 30:70) was 7420 ng·h/mL. Further, the maximum concentration (Cmax) in data set [1] (female, PO, 25 mg/kg, vehicle PEG400:H2O pH 2.3 30:70, read-out: Cmax) was 3370 ng/mL. For the same molecule, the concentration at 7 h in data set [1] (female, PO, 25 mg/kg) was 86 ng/mL. For the same molecule, the “% remain (HLM, 2 h)” value in data set [2] is on record as 16%.

Consider `CCCONC(=O)c1ccccc1Sc1ccc2c(/C=C/c3ccccn3)n[nH]c2c1` [Example 35(t), 6-[2-(n-Propoxycarbamoyl)phenylsulfanyl]-3-E-[2-(pyridin-2-yl)ethenyl]-1H-indazole], for which, in data set [1] (setting [5]), the AUClast is 3199 ng·h/mL and the “plasma half-life (T1/2)” value stood at 1.1 h. Moreover, the concentration at 7 h in data set [1] (female, PO, 25 mg/kg) stood at 41 ng/mL. Further, the “% remain (HLM, 2 h)” value in data set [2] stood at 7%.

In turn, `O=C(NCC1CC1)c1ccccc1Sc1ccc2c(/C=C/c3ccccn3)n[nH]c2c1` [Example 35(v), 6-[2-(Cyclopropylmethyl-carbamoyl)phenylsulfanyl]-3-E-[2-(pyridin-2-yl)ethenyl]-1H-indazole] had an AUClast in data set [1] (setting [3]) of 4865 ng·h/mL. Further, the “plasma half-life (T1/2)” value came out at 0.9 h in data set [1] (setting [3]) and 1.0 h in data set [1] (setting [4]). Further, the concentration at 7 h in data set [1] (female, IP, 25 mg/kg) amounted to 16 ng/mL; in data set [1] (female, PO, 50 mg/kg) it was 26 ng/mL. In addition, in data set [1] (female, PO, 50 mg/kg, vehicle PEG400:H2O pH 2.3 30:70), the AUC(0-t) was greater than 2950 ng·h/mL. Further, in data set [1] (female, PO, 50 mg/kg, vehicle PEG400:H2O pH 2.3 30:70, read-out: Cmax), the maximum concentration (Cmax) is greater than 2000 ng/mL. Moreover, the “% remain (HLM, 2 h)” value in data set [2] turned out to be 26%.

Take `CCNC(=O)c1ccccc1Sc1ccc2c(/C=C/c3ccccn3)n[nH]c2c1` [Example 35(x), 6-[2-(Ethylcarbamoyl)phenylsulfanyl]-3-E-[2-(pyridin-2-yl)ethenyl]-1H-indazole]: the AUClast in data set [1] (setting [3]) stood at 951 ng·h/mL; in data set [1] (setting [4]), 3516 ng·h/mL. In addition, the figures for the “plasma half-life (T1/2)” value in data set [1] (setting [3]) and in data set [1] (setting [4]) were 3.2 h and 0.9 h, respectively. For the same molecule, the concentration at 7 h came out at 48 ng/mL in data set [1] (female, IP, 25 mg/kg) and 16 ng/mL in data set [1] (female, PO, 50 mg/kg). The “% remain (HLM, 2 h)” value in data set [2] was determined as 37%.

For `O=C(Nc1nccs1)c1ccccc1Sc1ccc2c(/C=C/c3ccccn3)n[nH]c2c1` [Example 35(y), 6-[2-(Thiazol-2-ylcarbamoyl)phenylsulfanyl]-3-E-[2-(pyridin-2-yl)ethenyl]-1H-indazole], the AUClast came out at 159 ng·h/mL in data set [1] (setting [3]) and 58 ng·h/mL in data set [1] (setting [4]). For the same molecule, the “plasma half-life (T1/2)” value in data set [1] (setting [3]) and in data set [1] (setting [4]) was 1.2 h in each case. The concentration at 7 h was found to be 2 ng/mL in data set [1] (female, IP, 25 mg/kg) and 1 ng/mL in data set [1] (female, PO, 50 mg/kg). In addition, the “% remain (HLM, 2 h)” value in data set [2] came out at 7%.

On to `CCOCCNC(=O)c1ccccc1Sc1ccc2c(/C=C/c3ccccn3)n[nH]c2c1` [Example 35(z), 6-[2-(2-(Ethoxy)ethylcarbamoyl)phenylsulfanyl]-3-E-[2-(pyridin-2-yl)ethenyl]-1H-indazole], for which the AUClast in data set [1] (setting [3]) worked out at 837 ng·h/mL; in data set [1] (setting [4]) it was 1001 ng·h/mL. Besides, the “plasma half-life (T1/2)” value in data set [1] (setting [3]) was 1.8 h; in data set [1] (setting [4]), 1.6 h. Also, the concentration at 7 h stood at 22 ng/mL in data set [1] (female, IP, 25 mg/kg) and 14 ng/mL in data set [1] (female, PO, 50 mg/kg). Further, the “% remain (HLM, 2 h)” value in data set [2] is on record as 2%.

Turning to `Cn1ccnc1/C=N/NC(=O)c1ccccc1Sc1ccc2c(/C=C/c3ccccn3)n[nH]c2c1` [Example 36(a)], in data set [1] (setting [5]), the AUClast was 605 ng·h/mL and the “plasma half-life (T1/2)” value is 1.5 h. The concentration at 7 h in data set [1] (female, PO, 25 mg/kg) turned out to be 17 ng/mL. Besides, the “% remain (HLM, 2 h)” value in data set [2] amounted to 58%.

On to `CC(C)ONC(=O)c1cccc(F)c1Sc1ccc2c(/C=C/c3ccccn3)n[nH]c2c1` [Example 37(c), 6-[6-Fluoro-2-(isopropoxycarbamoyl)phenylsulfanyl]-3-E-[2-(pyridin-2-yl)ethenyl]-1H-indazole], for which, in data set [1] (setting [5]), the AUClast turned out to be 2419 ng·h/mL and the “plasma half-life (T1/2)” value is 1.2 h. For the same molecule, the concentration at 7 h in data set [1] (female, PO, 25 mg/kg) was 9 ng/mL. Moreover, in data set [2], the “% remain (HLM, 2 h)” value stood at 21%.
